From US11932595B2, “VDR-silent vitamin D derivative as inhibitors of SREBP and pharmaceutical use thereof” (KYOTO UNIVERSITY, priority 2020, dated 2024) come the findings set out here.

One data set has as its system SREBP. Nature of the data set: SREBP luciferase reporter assay (pSRE-Luc) in CHO-K1 cells. It is filed as cell-based. Particulars: CHO-K1 cells. On the procedure:
Cell Culture: CHO-K1 cells were maintained in medium A (1:1 mixture of Ham's F-12 medium and DMEM, supplemented with 100 units/mL penicillin, 100 μg/mL streptomycin sulfate, and 5% [v/v] fetal bovine serum) at 37° C. in a humidified 5% CO2 incubator.
CHO-K1 cells were seeded into 96-well plates at 8×10^3 cells per well in medium A and incubated for 24 h. For SREBP reporter assay, cells were co-transfected with an SRE-1-driven luciferase reporter plasmid (pSRE-Luc) and an actin promoter-driven β-galactosidase expression plasmid (pAc-13-gal) at a 20:1 ratio, using FuGENE HD Transfection Reagent (Promega) according to the manufacturer's protocol.
After 20 h, the medium was changed to medium B (1:1 mixture of Ham's F-12 medium and DMEM, supplemented with 100 units/mL penicillin, 100 μg/mL streptomycin sulfate, 5% [v/v] lipid-depleted serum, 50 μM compactin (Tokyo Chemical Industry), and 50 μM lithium mevalonate (Sigma-Aldrich) containing the specific test compounds. After 24 h incubation, the cells in each well were lysed with 100 μL of 1× Reporter Lysis Buffer (Promega), and 50 μL of aliquots were used to measure luciferase and 13-gal activities. Luciferase activity was measured using the Steady-Glo Luciferase Assay System (Promega), and 13-gal activity was measured using the 13-Galactosidase Enzyme Assay System (Promega). Luciferase activity was normalized to 13-gal activity.
[…] The same experiment using of 25(OH)D3 (1) was performed as control. Values are mean±SD.

The subject of the next data set is ob/ob mice. Nature of the data set: Long-term in vivo model of fatty liver in ob/ob mice. On the procedure:
C57BL/6 and oh/oh mice were purchased from CLEA Japan and Charles River Japan, Inc., respectively. Animal experiments were carried out at the University of Tokyo and Charles River Laboratories. Low fat, high carbohydrate diet, lacking vitamin D was custom made by Research Diets, Inc. Compounds disclosed herein and 25(OH)D3 were dissolved in ethanol/Tween 20 (9:1) to obtain stock solution and then diluted 10-fold with PBS immediately before administration to mice.
Following sacrifice, mouse livers were fixed in 10% neutral-buffered formalin, embedded in paraffin, sectioned, and stained with H&E. Hepatic lipids were extracted with chloroform/methanol (2:1 v/v), and TG and cholesterol contents were measured with Triglyceride Reagent Set (Pointe Scientific) and Cholesterol E (Wako), respectively. Serum levels of ALT, TG, glucose, cholesterol, and calcium were measured in SRL Inc. (Tokyo). All experiments were approved by the Ethics Committee for Animal Experimentation of the University of Tokyo and Charles River Laboratories Japan, and were conducted in accordance with the Guidelines for the Care and Use of Laboratory Animals.
Six-week-old ob/ob mice were treated with 10 mg/kg KK-052, 10 mg/kg 25(OH)D3, or vehicle control 5 times per week for 4 weeks (FIG. 7A).
Body weights of ob/ob mice were measured and data are given as means±SEM (25(OH)D3, n=5; others, n=8), *p<0.05 (FIG. 7B).
Hepatic TG and cholesterol contents were measured in KK-052- or vehicle-treated ob/ob mice (means±SEM), *p<0.05 (FIG. 7D).
Serum levels of ALT, TG, total cholesterol, glucose, and calcium were measured in KK-052- or vehicle-treated ob/ob mice (means±SEM), *p<0.05 (FIG. 7E).

Setting [1] is: 10 mg/kg 5 times per week for 4 weeks.
The mark [2] stands for this setting: ob/ob mice, versus vehicle, FIG. 7D.

Structures are written as SMILES.

For the compound `C[C@H](CCC(F)(F)C(C)(C)O)[C@H]1CC[C@H]2/C(=C/Cn3nnnc3-c3ccccc3)CCC[C@]12C` [Compound 50, (R)-3,3-Difluoro-2-methyl-6-{(1R,3aS,7aR,E)-7a-methyl-4-[2-(5-phenyl-1H-tetrazol-1-yl)ethylidene]octahydro-1H-inden-1-yl}heptan-2-ol], the “inhibition of activation of the SREBP reporter gene, concentration dependence” value with SREBP (FIG. 6A) is given as “concentration-dependent manner comparable to 25(OH)D3”. In addition, the “general condition of treated ob/ob mice” value in the data set with ob/ob mice (setting [1]) is “appeared healthy until the end of the experiments”. For the same compound, the weight gain result in the data set on ob/ob mice (ob/ob mice, 10 mg/kg 5 times per week for 4 weeks, FIG. 7B) is recorded as “slightly but significantly decreased”. Besides, the “liver steatosis (H&E histology)” value in the data set with ob/ob mice (ob/ob mice, 10 mg/kg, 4 weeks, FIG. 7C) is “attenuated”. In the data set on ob/ob mice (ob/ob mice, 10 mg/kg, 4 weeks, FIG. 7E), the “serum calcium levels versus vehicle-treated group” value is “no detectable difference”. For the same compound, in the data set with ob/ob mice (ob/ob mice, FIG. 7E), the “serum level of TG” value is on record as “significantly decreased”, the “serum level of alanine aminotransferase (ALT)” value is “significantly decreased” and the “serum level of glucose” value was “significantly decreased”. Moreover, in the data set with ob/ob mice (setting [2]), the hepatic cholesterol content result is given as “significantly decreased” and the “hepatic triglyceride (TG) content” value is given as “significantly decreased”.

`C=C1CC[C@H](O)C/C1=C/C=C1\CCC[C@]2(C)[C@@H]([C@H](C)CCCC(C)(C)O)CC[C@@H]12` [25(OH)D3, 25-hydroxyvitamin D3, reference compound]: the “SREBP inhibitory activity (expression of SREBP-responsive luciferase reporter gene)” value with SREBP (5 μM compound, lipid-free medium, 24 h, FIGS. 1 and 3) is “substantial inhibitory activity”. Moreover, the “general condition of treated ob/ob mice” value in the data set on ob/ob mice (setting [1]) is “became sick due to hypercalcemia and euthanized at 1 week”.
